The conditions of data set [1]: in vivo. How it is done:
Incidence of treatment-emergent Adverse Events (AEs), AEs leading to withdrawal, and Serious Adverse Events (SAEs) grouped by system organ class (SOC) were calculated as needed. Clinically significant abnormal values for clinical laboratory, AM cortisol (≤138 nmol/L), urinalysis, vital signs, and electrocardiogram (ECG) findings were measured as needed.
A total of 24 subjects were enrolled and randomized to one of six sequences to receive each of the three treatments over the three periods with a 7-day washout between doses.
C. […] These subjects continued fasting for at least 4 hours post-dose. • Subjects on the “Fed” treatment (Treatment B) began a high-fat breakfast 30 minutes after an overnight fast of at least 10 hours. […] Subjects were administered 6.0 mg of ATP-1011 immediately prior to bedtime (4 hours following the standard meal).
Randomization (Day 1): Subjects were randomized to one of six sequences (See Table 15) to receive a single dose of each treatment over three periods, with a 7-day washout between doses.
Treatment Periods: For each period, subjects were in-patients for 5 days (Days 0-4, Days 7-11, Days 14-18) with PK samples collected over 72 hours following each dose. Subjects were checked-in to the CRU the evening prior to each dosing (Day 0, 7, and 14) and received treatment according to the sequence on which they were randomized on Day 1. […] All meals (AM and 4 hours prior to bedtime) were standardized for all subjects and all periods. Subjects completed these meals within 30 minutes. […] Subjects dosed HS followed the same PK schedule with PK samples scheduled relative to the bedtime dose.
Pharmacokinetics: Derived plasma-PK-parameter descriptive statistics were summarized by treatment. […] Additional comparisons were assessed between HS dosing and Fed and Fasted administration.
The following PK parameters were estimated by noncompartmental methods from plasma samples. Below limit of quantitation concentrations were treated as zero for all PK analyses. All deviations from the scheduled sampling time of 2 minutes or more were taken into consideration for evaluation of the PK parameters.
The trapezoidal rule was used to estimate the area under the curve (linear trapezoidal linear interpolation) and the terminal phase were estimated by maximizing the coefficient of determination estimated from the log-linear regression model. However, disposition parameters were not estimated for individual concentration-time profiles where the terminal log-linear phase cannot be reliably characterized.
Food Effect Analysis: The 90% confidence interval for the exponential of the difference in LSmeans between B (fed) and A (fasted) was calculated for the ln-transformed parameters (Test to Reference ratio of geometric LSmeans).
HS vs Fasted Analysis: The 90% confidence interval for the exponential of the difference in LSmeans between C (HS) and A (fasted) was calculated for the ln-transformed parameters (Test to Reference ratio of geometric LSmeans).
HS vs Fed Analysis: The 90% confidence interval for the exponential of the difference in LSmeans between C (HS) and B (fed) was calculated for the ln-transformed parameters (Test to Reference ratio of geometric LSmeans).
Treatments Administered: Study drug was administered by qualified study staff only in accordance with the procedures described in this protocol. […] All subjects were instructed to take the study drug tablet orally without water or other liquids. […]

The nature of data set [2]: Previous PK studies of APT-1011 (food effect, QD vs BID). As to conditions: single-dose administration. It is filed as in vivo, human.
The conditions of data set [3]: oral; cited from earlier work.

For the compound `CCC(=O)O[C@]1(C(=O)SCF)[C@H](C)C[C@H]2[C@@H]3C[C@H](F)C4=CC(=O)C=C[C@]4(C)[C@@]3(F)[C@@H](O)C[C@@]21C` [FP, Fluticasone propionate], in data set [1] (human, 6 mg), the “AUC0-24, geometric LSmean” value was determined as 367.351 pg·h/mL; the “AUCinf, geometric LSmean” value worked out at 915.302 pg·h/mL; the “AUClast, geometric LSmean” value was 789.234 pg·h/mL; the “Cmax, geometric LSmean” value was determined as 31.3 pg/mL. Besides, in data set [1], the “maximum peak exposure, lower than morning-fast” value is 19%. The “between-subject variability (CV % Geo mean) of FP AUC(0-24h)” value in data set [2] was over 55%. Moreover, the expected systemic bioavailability in data set [3] is given as about 1%.
